The source of these data is paper PMC8154124, “Design, Synthesis, Anticancer Evaluation, Enzymatic Assays, and a Molecular Modeling Study of Novel Pyrazole–Indole Hybrids” (ACS Omega, 2021).

The structures appear in SMILES notation.

The term IC50 denotes the concentration that inhibits the measured activity by half. Low values mean greater potency, high ones weaker potency. For orientation: melting point means the temperature, or range, at which the solid turns liquid.

Series [1] has as its system human breast adenocarcinoma (MCF-7). The series can be described thus: MTT cytotoxicity assay, MCF-7. Format: cell-based. Conditions: MCF7, 48 h, mean ± SD. The method, then:
(§1) The cells of human liver carcinoma (HepG2), human breast adenocarcinoma (MCF-7), human colorectal carcinoma (HCT-116), and human lung carcinoma (A549) were purchased from the American Type Culture Collection (Rockville, MD). All cells were maintained in a Dulbecco’s modified Eagle’s medium (DMEM), which was supplemented with 10% of heat-inactivated fetal bovine serum (FBS) and 100 U/mL penicillin and streptomycin each. The cells were grown at 37 °C in a humidified atmosphere of 5% CO2.
(§2) The cytotoxicity activities on the human liver carcinoma (HepG2), human breast adenocarcinoma (MCF-7), human colorectal carcinoma (HCT-116), and human lung carcinoma (A549) cell lines were estimated employing the 3-(4,5-dimethyl-2-thiazolyl)-2,5-diphenyl-2H-tetrazolium bromide (MTT) assay, which was grounded on the reduction of the tetrazolium salt by mitochondrial dehydrogenases in viable cells.[51],[52] The cells were dispensed in a 96-well sterile microplate (3 × 10^4 cells/well), followed by their incubation at 37 °C with a series of different concentrations of 10 μL of each compound or doxorubicin (positive control, in DMSO) for 48 h in a serum-free medium prior to the MTT assay. Subsequently, the media were carefully removed, and 40 μL of MTT (2.5 mg/mL) was added to each well and then incubated for an additional 4 h. Purple formazan dye crystals were solubilized by the addition of 200 μL of DMSO. The absorbance was measured at 570 nm using a SpectraMax Paradigm Multi-Mode microplate reader. The relative cell viability was expressed as the mean percentage of viable cells relative to the untreated control cells. All experiments were conducted in triplicate and were repeated on three different days. All of the values were represented as mean ± standard deviation (SD). The IC50s were determined by the SPSS probit analysis software program (SPSS Inc., Chicago, IL).
(In general: Tetrazolium dyes change colour on reduction, which living cells bring about.)

The subject of series [2] is human liver carcinoma (HepG2). The series can be described thus: MTT cytotoxicity assay, HepG2. It counts as cell-based. Conditions: 48 h, mean ± SD. The method, then:
as §1, §2

In series [3] the test system is human lung carcinoma (A549). The series can be described thus: MTT cytotoxicity assay, A549. It counts as cell-based. The conditions noted are these: 48 h, mean ± SD. The method, then: as §1, §2
The subject of series [4] is human colorectal carcinoma (HCT-116). The series can be described thus: MTT cytotoxicity assay, HCT-116. It counts as cell-based. The conditions noted are these: 48 h, mean ± SD. The method, then:
as §1, §2

`COc1cccc2c1C(=O)c1c(O)c3c(c(O)c1C2=O)C[C@@](O)(C(=O)CO)C[C@@H]3O[C@H]1C[C@H](N)[C@H](O)[C@H](C)O1` [doxorubicin, reference compound]: the half-inhibitory concentration (IC50) in series [1] was found to be 64.8 ± 4.1 µM; in series [2] it was 24.7 ± 3.2 µM; in series [3], 58.1 ± 4.1 µM; in series [4] it was 40 ± 3.9 µM.
On the same counts, the results for `COc1ccc(Nc2n[nH]c(N=C3C(=O)N(C)c4ccccc43)c2C(=O)Nc2ccc(C)cc2)cc1` [5e, 3-(4-Methoxyphenylamino)-5-(1-methyl-2-oxoindolin-3-ylideneamino)-N-(4-methylphenyl)-1H-pyrazole-4-carboxamide] are 61.8 ± 5.1 µM, 32 ± 3.9 µM, 77.7 ± 5.6 µM and 39.9 ± 4.2 µM.
On the same counts, the results for `CCN1C(=O)C(=Nc2[nH]nc(Nc3ccccc3)c2C(=O)Nc2ccccc2)c2ccccc21` [5f, 5-(1-Ethyl-2-oxoindolin-3-ylideneamino)-N-phenyl-3-(phenylamino)-1H-pyrazole-4-carboxamide] are 42.1 ± 4.7 µM, 23.7 ± 3.1 µM, 52.9 ± 4.5 µM and 28.9 ± 3.9 µM.
Turning to `CCN1C(=O)C(=Nc2[nH]nc(Nc3ccccc3)c2C(=O)Nc2ccc(C)cc2)c2ccccc21` [5g, 5-(1-Ethyl-2-oxoindolin-3-ylideneamino)-3-(phenylamino)-N-(4-methylphenyl)-1H-pyrazole-4-carboxamide], the half-inhibitory concentration (IC50) was 54 ± 4.9 µM in series [1], 27.8 ± 3.5 µM in series [2], 46.8 ± 5.3 µM in series [3] and 35.7 ± 3.9 µM in series [4].
On the same counts, the results for `CCN1C(=O)C(=Nc2[nH]nc(Nc3ccc(OC)cc3)c2C(=O)Nc2ccc(C)cc2)c2ccccc21` [5j, 5-(1-Ethyl-2-oxoindolin-3-ylideneamino)-3-(4-methoxyphenylamino)-N-(4-methylphenyl)-1H-pyrazole-4-carboxamide] are 63.7 ± 5.5 µM, 24.4 ± 2.9 µM, 57 ± 4.9 µM and 38.9 ± 4.1 µM.
On the same counts, the results for `CCN1C(=O)C(=Nc2[nH]nc(Nc3ccc(OC)cc3)c2C(=O)Nc2ccccc2)c2ccccc21` [5i, 5-(1-Ethyl-2-oxoindolin-3-ylideneamino)-3-(4-methoxyphenylamino)-N-phenyl-1H-pyrazole-4-carboxamide] are 30.1 ± 4.2 µM, 26.7 ± 3.1 µM, 47.8 ± 4.5 µM and 53.9 ± 5.7 µM.
For `CCN1C(=O)C(=Nc2[nH]nc(Nc3ccc(OC)cc3)c2C(N)=O)c2ccccc21` [5h, 5-(1-Ethyl-2-oxoindolin-3-ylideneamino)-3-(4-methoxyphenylamino)-1H-pyrazole-4-carboxamide], the melting point is 269 to 271 °C. Also, in series [1], the IC50 is 25.4 ± 3.9 µM. The compound also showed an IC50 in series [2] of 28.2 ± 3.5 µM. In series [3], this compound registered a half-maximal inhibitory concentration (IC50) of 41.9 ± 3.9 µM. This compound also displayed a half-maximal inhibitory concentration (IC50) in series [4] of 25.7 ± 4.3 µM.
On the same counts, the results for `COc1ccc(Nc2n[nH]c(N=C3C(=O)N(C)c4ccccc43)c2C(N)=O)cc1` [5c, 3-(4-Methoxyphenylamino)-5-(1-methyl-2-oxoindolin-3-ylideneamino)-1H-pyrazole-4-carboxamide] are 265 to 267 °C, 22 ± 3.5 µM, 32.8 ± 3.8 µM, 40.7 ± 4.1 µM and 39.5 ± 4.5 µM.
For the compound `Cc1ccc(NC(=O)c2c(Nc3ccccc3)n[nH]c2N=C2C(=O)N(C)c3ccccc32)cc1` [5b, 5-(1-Methyl-2-oxoindolin-3-ylideneamino)-3-(phenylamino)-N-(4-methylphenyl)-1H-pyrazole-4-carboxamide], the IC50 in series [1] was 48 ± 5.1 µM; in series [2], 37.1 ± 4.3 µM; in series [3] it was 46.7 ± 4.9 µM; in series [4] it was 28.1 ± 3.5 µM.
On the same counts, the results for `COc1ccc(Nc2n[nH]c(N=Cc3c[nH]c4ccccc34)c2C(=O)Nc2ccccc2)cc1` [7d, 5-((1H-Indol-3-yl)methyleneamino)-3-(4-methoxyphenylamino)-N-phenyl-1H-pyrazole-4-carboxamide] are 17.4 ± 2.3 µM, 27.2 ± 3.5 µM, 58.7 ± 4.2 µM and 25.3 ± 3.5 µM.
On the same counts, the results for `CN1C(=O)C(=Nc2[nH]nc(Nc3ccccc3)c2C(=O)Nc2ccccc2)c2ccccc21` [5a, 5-(1-Methyl-2-oxoindolin-3-ylideneamino)-N-phenyl-3-(phenylamino)-1H-pyrazole-4-carboxamide] are 28.3 ± 3.5 µM, 27.6 ± 3.1 µM, 42.8 ± 4.2 µM and 25.7 ± 3.5 µM.
With `COc1ccc(Nc2n[nH]c(N=C3C(=O)N(C)c4ccccc43)c2C(=O)Nc2ccccc2)cc1` [5d, 3-(4-Methoxyphenylamino)-5-(1-methyl-2-oxoindolin-3-ylideneamino)-N-phenyl-1H-pyrazole-4-carboxamide], the IC50 came to 46.4 ± 4.5 µM in series [1], 34.8 ± 3.9 µM in series [2], 56 ± 4.1 µM in series [3] and 54.2 ± 5.5 µM in series [4].
Compound `COc1ccc(Nc2n[nH]c(N=Cc3c[nH]c4ccccc34)c2C(N)=O)cc1` [7c, 5-((1H-Indol-3-yl)methyleneamino)-3-(4-methoxyphenylamino)-1H-pyrazole-4-carboxamide] showed a melting point of 260 to 262 °C. Further, the concentration for half-maximal inhibition (IC50) in series [1] stood at 22.2 ± 3.3 µM. Further, it took 35.8 ± 3.9 µM to reach half-maximal inhibition in series [2] (IC50). Besides, the IC50 in series [3] worked out at 43.4 ± 4.2 µM. The IC50 in series [4] is 31.9 ± 3.8 µM.
In the case of `COc1ccc(Nc2n[nH]c(N=Cc3c[nH]c4ccccc34)c2C(=O)Nc2ccc(C)cc2)cc1` [7e, 5-((1H-Indol-3-yl)methyleneamino)-3-(4-methoxyphenylamino)-N-(4-methylphenyl)-1H-pyrazole-4-carboxamide], the IC50 was found to be 16.2 ± 2.3 µM in series [1], 25.8 ± 3.5 µM in series [2], 40.8 ± 4.3 µM in series [3] and 37.4 ± 4.1 µM in series [4].
